Results reported in patent US10761087B2, “Choroidal neovascularization suppressor or drusen formation suppressor, and method for assessing or screening for same” (Link Genomics, Inc., priority 2015, dated 2020).
Read-outs that look alike come from different tables or passages of the source.

Columns and labels:
[1] = tested on: EMT markers (mesenchymal markers, ECM) in RPE cells (ARPE-19); assay: Change in expression of EMT markers (real-time PCR) in EMT-induced RPE cells; assay type: cell-based, human; conditions: EMT-induced ARPE-19, 48 hours; for Enhancement of expression of Fibronectin, Snail and vimentin (mesenchymal markers): compound at Cmax, ½ of Cmax or ¼ of Cmax; for EMT suppression (FIG. 3 to FIG. 7) / Expression of EMT markers other than the ten common markers / Expression of Snail, Slug, CDH3, MMP1, MMP7, COL5A3, COL6A3, LAMC2, HMMR, TNC: oxaprozin 300 μM, epalrestat 30 μM, zafirlukast 3 μM, amlexanox 30 μM, zaltoprofen 30 μM
Method: RPE cells (ARPE-19) were seeded on a plate, and incubated for 5 days at 37° C. For the RPE cells, EMT was induced in the conditions described in Test example 1-1, and respective compounds (oxaprozin, epalrestat, zafirlukast, amlexanox, zaltoprofen) were added simultaneously, and the cells were collected after 48 hours from induction of EMT. As a control, a sample to which a compound to be assessed (test drug) is not added was used. The collected cells were washed with PBS, and 350 μL of an RLT buffer was added to prepare a lysate for RNA extraction. The respective compounds were used in the following concentrations. Oxaprozin: 300 μM, epalrestat: 30 μM, zafirlukast: 3 μM, amlexanox: 30 μM, zaltoprofen: 30 μM. Total RNA was extracted from the lysate using an RNeasy Micro kit (QIAGEN, #74004), and from 2 μg of the obtained RNA, cDNA was prepared using a SuperScript III First-Strand Synthesis SuperMix for qRT-PCR (Invitrogen, #11752-250). Using 50 ng of the obtained cDNA as a template, a real-time PCR (ABI Prism 7500 Sequence Detection System) was conducted according to the manufacturer's protocol, and expression of mRNA of each gene was quantified. Specific primers for respective genes were purchased from Invitrogen. Ct (Threshold Cycle) value of each gene was calculated as a percentage to a non-treated sample after normalization by endogenous control.
Five compounds (flufenamic acid aluminum (addition concentration: 28 μM (Cmax)), mefenamic acid (addition concentration: 39 μm (Cmax)), sulindac (addition concentration: 100 μM), tiaprofenic acid (addition concentration: 1000 μM), and seratrodast (addition concentration: 31 μM (Cmax))) were assessed for change in expression of EMT markers in the same manner as in Test example 2-1. The results are shown in FIG. 8 to FIG. 12, respectively.
RPE cells (ARPE-19) were seeded on a plate, and incubated for 5 days at 37° C. […] Each compound was added in a concentration of Cmax, ½ of Cmax or ¼ of Cmax. As a control, a sample to which a compound to be assessed (test drug) is not added was used. The collected cells were washed with PBS, and 350 μL of an RLT buffer was added to prepare a lysate for RNA extraction. Total RNA was extracted from the lysate using an RNeasy Micro kit (QIAGEN, #74004), and from 2 μg of the obtained RNA, cDNA was prepared using a SuperScript III First-Strand Synthesis SuperMix for qRT-PCR (Invitrogen, #11752-250). Using 50 ng of the obtained cDNA as a template, a real-time PCR (ABI Prism 7500 Sequence Detection System) was conducted according to the manufacturer's protocol, and expression of mRNA of each gene was quantified. Specific primers for respective genes were purchased from Invitrogen. Ct (Threshold Cycle) value of each gene was calculated as a percentage to a non-treated sample after normalization by endogenous control. For each result, a significant test (Student t test) was conducted, and when p<0.05, the result was marked with “*”, and when p<0.01, the result was marked with “**”.
RPE cells (ARPE-19) were seeded on a plate, and incubated for 5 days at 37° C. For the RPE cells, EMT was induced in the conditions described in Test example 5-1, and the five representative compounds (oxaprozin, epalrestat, zafirlukast, amlexanox, zaltoprofen) were added simultaneously, and the cells were collected after 48 hours from induction of EMT. As a control, a sample to which a compound to be assessed (test drug) is not added was used. The collected cells were washed with PBS, and 350 μL of an RLT buffer was added to prepare a lysate for RNA extraction. Total RNA was extracted from the lysate using an RNeasy Micro kit (QIAGEN, # 74004), and from 2 μg of the obtained RNA, cDNA was prepared using a SuperScript III First-Strand Synthesis SuperMix for qRT-PCR (Invitrogen, # 11752-250). […]

RPE cells (ARPE-19) = assay: Focus (drusen-like structure) formation suppression in EMT induction model of RPE cells; assay type: cell-based, human; conditions: for Suppression of drusen-like structure formed in the RPE cell model: FIG. 35 to 39; for IC50: Homo sapiens
Method: RPE cells (ARPE-19) were seeded on a plate, and incubated for 5 days at 37° C. […] As a control of EMT induction, a sample to which a compound to be assessed (test drug) is not added was used. After 48 hours from EMT induction, the cells were fixed by treating with a 4% paraformaldehyde solution for 30 minutes at room temperature, and then washed three times with PBS. The cells were treated with a 0.2% Triton-X/PBS solution for 5 minutes, and washed three times with PBS. […] The fluorescent-stained cells were imaged by using an Image Express Micro (available from Molecular Devices), and digitized by using a MetaXpress2.0 (available from Molecular Devices). By analyzing the degree of formation of Focus (Focus level) from the numerical data, a Focus formation suppressing rate was calculated according to the following Formula 1 on the basis of the numerical value at the time of no addition of a compound, and the EMT suppressive effect in each compound was verified. The degree of formation of Focus (Focus level) was determined according to the number and the volume of Focus as indexes.
IC50 in the table was calculated using the following Formula 2.
A: Higher concentration sandwiching 50%
B: Lower concentration sandwiching 50%
C: Inhibition rate at lower concentration sandwiching 50%
D: Inhibition rate at higher concentration sandwiching 50%
RPE cells (ARPE-19) were seeded on a plate, and incubated for 5 days at 37° C. […] As a control of EMT induction, a sample to which a compound to be assessed (test drug) is not added was used. The cells after observation were fixed by treating with a 4% paraformaldehyde solution for 30 minutes at room temperature, and then washed three times with PBS. The cells were treated with a 0.2% Triton-X/PBS solution for 5 minutes, and washed three times with PBS. […] The fluorescent-stained cells were imaged by using an Image Express Micro (available from Molecular Devices), and digitized by using a MetaXpress2.0 (available from Molecular Devices). By analyzing the degree of formation of Focus from the numerical data, a Focus formation suppressing rate was calculated on the basis of the case without addition of a compound and the case without EMT induction, and the EMT suppressive effect in each compound was verified. […] After washing three times with methanol, the cells were dried for 3 hours at room temperature. The dried cells were observed under a microscope.

[2] = cited from earlier work
[3] = Table 1, EMT-induced ARPE-19, compound added simultaneously, 48 hours, read-out: IC50 (Focus formation suppressing rate, EMT suppressive effect)
[4] = Test example 7, EMT-induced ARPE-19, 48 hours, read-out: IC50 values in the drusen-like structure suppressing tests
[5] = Table 3, from the interview form and the package insert of each drug, read-out: Cmax
[6] = quoted in Test examples 2-3, 2-4, 2-5, read-out: Cmax (as quoted in the VEGF test examples)

| Structure (SMILES) | Enhancement of expression of Fibronectin, Snail and vimentin (mesenchymal markers) [1] | EMT suppression (FIG. 3 to FIG. 7) [1] | Expression of EMT markers other than the ten common markers [1] | Expression of Snail, Slug, CDH3, MMP1, MMP7, COL5A3, COL6A3, LAMC2, HMMR, TNC [1] | Suppression of drusen-like structure formed in the RPE cell model (RPE cells (ARPE-19); EMT-induced ARPE-19, 48 hours) | IC50 (RPE cells (ARPE-19); [3]) [µM] | IC50 (RPE cells (ARPE-19); [4]) [µM] | Cmax ([2]; Alvo tablet Interview Form, repeated-dose administration, read-out: Cmax) [µM] | Cmax [2, 5] [µM] | Cmax [2, 6] [µM] | Cmax ([2]; Pharmaceutical Interview Form, single-dose administration, read-out: Cmax) [µM] | Cmax ([2]; Soleton tablet 80 Interview Form, single-dose administration, depending on the kind of the additive, read-out: Cmax) [µM] |
| --- | --- | --- | --- | --- | --- | --- | --- | --- | --- | --- | --- | --- |
| O=C(O)CCc1nc(-c2ccccc2)c(-c2ccccc2)o1 [Oxaprozin, oxaprozin] | suppressed enhancement of expression of these in a concentration dependent manner | significantly suppress EMT | decrease in expression was observed in ZEB2, MMP3, COL1A1, COL1A2, CSPG4, and SRGN | suppressed expression | suppresses a drusen-like structure formed in the RPE cell model in a concentration-dependent manner | 61 | 61 | 341 | 341 | 341 | – | – |
| CC(C(=O)O)c1ccc2c(c1)CC(=O)c1ccccc1S2 (stereo not drawn) [Zaltoprofen, zaltoprofen] | suppressed enhancement of expression of these in a concentration dependent manner | significantly suppress EMT | decrease in expression was observed in ZEB2, FN1, COL13A1, and CSPG4 | suppressed expression | suppresses a drusen-like structure formed in the RPE cell model in a concentration-dependent manner | 16.5 | 16.5 | – | 20.4 | 20.4 | 20.4 | 16.8 |
